Measured values taken from PMC10354055, “An optimized Nurr1 agonist provides disease-modifying effects in Parkinson’s disease models” (Nature Communications, 2023).
“And” between values parts separate entries of the source, which are not always exact repeats. Equal entries are not always repeated.

Assays:
[1] = system: mouse ventral mesencephalic (VM) primary cells; assay: Dopaminergic gene expression, qRT-PCR, primary VM cells with 6-OHDA; type: cell-based
Experimental: Total RNA was extracted using the GeneJET RNA Purification Kit (Thermo Fisher Scientific) and 100 ng of RNA was subjected to cDNA synthesis using Invitrogen Superscript cDNA Synthesis Kit (Invitrogen) according to the manufacturer’s protocol. qRT-PCR was performed using a CFX Connect Real-Time System (Bio-Rad) in a 20 μl volume mixture containing 2X SsoAdvanced Universal SYBR Green Supermix (Bio-Rad), 100 ng/μl of forward and reverse primers, and 1 μl of cDNA sample. Gene expression levels were quantified by the 2^∆∆CT method (Ct of target gene—Ct of glyceraldehyde-3-phosphate dehydrogenase (GAPDH). The following primers were used for qRT-PCR: TH forward: 5′-[…]-3′, reverse: 5′-[…]-3′; DAT forward: 5′-[…]-3′, reverse: 5′-[…]-3′; AADC forward: 5′-[…]-3′, reverse: 5′-[…]-3′; VMAT2 forward: 5′-[…]-3′, reverse: 5′-[…]-3′; c-Ret forward: 5′-[…]-3′, reverse: 5′-[…]-3′; TNFα forward: 5′-[…]-3′; reverse: 5′-[…]-3′; GAPDH, forward 5′-[…]-3′, reverse 5′-[…]-3′.
Briefly, dissected VM brain tissues were collected in ice-cold Dulbecco’s phosphate-buffered saline (DPBS) and then mechanically dissociated using pipettes. Thereafter, dissociated tissues were incubated in 0.05 % Trypsin-EDTA (Invitrogen) for 5 min at 37 °C. The cell suspension was plated onto glass coverslips in 48-well plates pre-coated with […] poly-L-ornithine, 5 μg/ml Fibronectin or 1 μg/ml Laminin at a density of 2.0 × 10^5 cells/cm^2 in differentiation medium (1% heat-inactivated FBS, 2 mM L-glutamine, 50X B27 supplement, 100 μM ascorbic acid and 2 μg/ml bFGF in Neurobasal media).

N27-A cells = assay: Mitochondrial activity assay, Seahorse XFp, N27-A cells; type: cell-based, rat; set-up: Seahorse time trace (OCR): unit not given here; conditions: for Seahorse time trace (OCR): replicates
Experimental: Mitochondrial activity was measured using the Seahorse XFp analyzer (Agilent Technologies) according to the manufacturer’s instruction. Briefly, cells were plated onto wells of a XFp cell culture miniplate and incubated in a 37 °C incubator overnight. The assay was performed after cells were equilibrated for 1 h in XF assay medium supplemented with 10 mM D-glucose, 5 mM sodium pyruvate, and 2 mM glutamax in a non-CO2 incubator. Mitochondrial activity was monitored through sequential injections of 1 μM oligomycin, 2 μM carbonyl cyanide-4 (trifluoromethoxy) phenylhydrazone (FCCP) and 0.5 μM rotenone/antimycin A to calculate basal respiration (= baseline oxygen consumption rate (OCR)−rotenone/antimycin A OCR), maximal respiration (= FCCP OCR−rotenone/antimycin A OCR), ATP turnover (= baseline OCR−oligomycin OCR), and OCR changes after FCCP injection (= FCCP OCR−oligomycin OCR). Each plotted value was normalized to total protein quantified using a Bradford protein assay (Bio-Rad) and analyzed using the Seahorse WAVE Desktop software (Agilent Technologies).

CCN1CCN(c2cc(N3CCN(CC)CC3)nc(NCCNc3ccnc4cc(Cl)ccc34)n2)CC1 [4A7C-301, N^1-(4,6-bis(4-ethylpiperazin-1-yl)pyrimidin-2-yl)-N^2-(7-chloroquinolin-4-yl)ethane-1,2-diamine]
Relative mRNA levels (fold of Control), AADC ([1]; Fig. S5f/S5g, with 6-OHDA): 1.28 fold of Control and 1.13 fold of Control and 1.203 fold of Control
Relative mRNA levels (fold of Control), DAT ([1]; Fig. S5f/S5g, with 6-OHDA): 1.197 fold of Control and 1.193 fold of Control and 1.282 fold of Control
Relative mRNA levels (fold of Control), TH ([1]; Fig. S5f/S5g, with 6-OHDA): 0.9704 fold of Control and 1 fold of Control and 1.046 fold of Control
Relative mRNA levels (fold of Control), VMAT2 ([1]; Fig. S5f/S5g, with 6-OHDA): 0.9594 fold of Control and 0.8951 fold of Control and 0.9343 fold of Control
Relative mRNA levels (fold of Control), c-Ret ([1]; Fig. S5f/S5g, with 6-OHDA): 0.9509 fold of Control and 0.8338 fold of Control and 0.9285 fold of Control
Relative mRNA levels (fold of Control), AADC ([1]; Fig. S5f/S5g, without 6-OHDA): 1.446 fold of Control and 1.683 fold of Control and 1.592 fold of Control
Relative mRNA levels (fold of Control), DAT ([1]; Fig. S5f/S5g, without 6-OHDA): 2.907 fold of Control and 2.949 fold of Control and 3.159 fold of Control
Relative mRNA levels (fold of Control), TH ([1]; Fig. S5f/S5g, without 6-OHDA): 2.273 fold of Control and 2.094 fold of Control and 2.264 fold of Control
Relative mRNA levels (fold of Control), VMAT2 ([1]; Fig. S5f/S5g, without 6-OHDA): 1.573 fold of Control and 1.37 fold of Control and 1.5834 fold of Control
Relative mRNA levels (fold of Control), c-Ret ([1]; Fig. S5f/S5g, without 6-OHDA): 1.652 fold of Control and 1.7584 fold of Control and 1.7573 fold of Control
Relative mRNA levels (fold of Control), AADC ([1]; Fig. S5h/S5i, with 6-OHDA): 0.268 fold of Control and 0.3023 fold of Control and 0.2821 fold of Control
Relative mRNA levels (fold of Control), DAT ([1]; Fig. S5h/S5i, with 6-OHDA): 0.1919 fold of Control and 0.1982 fold of Control and 0.2381 fold of Control
Relative mRNA levels (fold of Control), TH ([1]; Fig. S5h/S5i, with 6-OHDA): 0.3682 fold of Control and 0.3362 fold of Control and 0.3267 fold of Control
Relative mRNA levels (fold of Control), VMAT2 ([1]; Fig. S5h/S5i, with 6-OHDA): 0.2168 fold of Control and 0.2497 fold of Control and 0.2445 fold of Control
Relative mRNA levels (fold of Control), c-Ret ([1]; Fig. S5h/S5i, with 6-OHDA): 0.2351 fold of Control and 0.2454 fold of Control and 0.2588 fold of Control
Relative mRNA levels (fold of Control), AADC ([1]; Fig. S5h/S5i, without 6-OHDA): 0.385 fold of Control and 0.3813 fold of Control and 0.3915 fold of Control
Relative mRNA levels (fold of Control), DAT ([1]; Fig. S5h/S5i, without 6-OHDA): 0.3184 fold of Control and 0.317 fold of Control and 0.3059 fold of Control
Relative mRNA levels (fold of Control), TH ([1]; Fig. S5h/S5i, without 6-OHDA): 0.5668 fold of Control and 0.4913 fold of Control and 0.5193 fold of Control
Relative mRNA levels (fold of Control), VMAT2 ([1]; Fig. S5h/S5i, without 6-OHDA): 0.4847 fold of Control and 0.4471 fold of Control and 0.4495 fold of Control
Relative mRNA levels (fold of Control), c-Ret ([1]; Fig. S5h/S5i, without 6-OHDA): 0.4648 fold of Control and 0.44 fold of Control and 0.4811 fold of Control
dopaminergic gene expression (in words) ([1]; VM primary cells, decreased by 6-OHDA, CQ 20 µM, 4A7C-301 0.5 µM): significantly rescued
OXPHOS capacity reduced by MPP+ (in words) (N27-A cells; CQ 100 µM, 4A7C-301 1 µM): efficiently restored
OCR changes after FCCP injection (N27-A cells; Control N27-A cells, MPP+ co-treatment, individual replicates (Supplementary Figure S1o)): 22.93 pmol/min/µg protein and 28.37 pmol/min/µg protein and 27.04 pmol/min/µg protein and 22.31 pmol/min/µg protein
Seahorse time trace (OCR) (N27-A cells; Fig. S1j/k, Control + MPP+, time 2 min): 28.88 and 28.2 and 18.44 and 14.94
Seahorse time trace (OCR) (N27-A cells; Fig. S1j/k, Control + MPP+, time 8 min): 28.86 and 28.61 and 14.72 and 11.2
Seahorse time trace (OCR) (N27-A cells; Fig. S1j/k, Control + MPP+, time 15 min): 28.17 and 28.8 and 13.75 and 10.54
Seahorse time trace (OCR) (N27-A cells; Fig. S1j/k, Control + MPP+, time 21 min): 9.43 and 9.81 and 3.69 and 2.8
Seahorse time trace (OCR) (N27-A cells; Fig. S1j/k, Control + MPP+, time 28 min): 9.7 and 9.86 and 4.4 and 3.39
Seahorse time trace (OCR) (N27-A cells; Fig. S1j/k, Control + MPP+, time 34 min): 9.59 and 9.6 and 4.42 and 3.28
Seahorse time trace (OCR) (N27-A cells; Fig. S1j/k, Control + MPP+, time 41 min): 32.36 and 38.18 and 30.73 and 25.11
Seahorse time trace (OCR) (N27-A cells; Fig. S1j/k, Control + MPP+, time 47 min): 29.9 and 35.04 and 27.29 and 22.64
Seahorse time trace (OCR) (N27-A cells; Fig. S1j/k, Control + MPP+, time 54 min): 29.63 and 34.46 and 27.32 and 22.95
Seahorse time trace (OCR) (N27-A cells; Fig. S1j/k, Control + MPP+, time 61 min): 9.52 and 9.47 and 4.93 and 3.5
Seahorse time trace (OCR) (N27-A cells; Fig. S1j/k, Control + MPP+, time 67 min): 9.83 (2×) and 4.57 and 3.36
Seahorse time trace (OCR) (N27-A cells; Fig. S1j/k, Control + MPP+, time 74 min): 9.8 and 10.29 and 4.41 and 3.28
Seahorse time trace (OCR) (N27-A cells; Fig. S1j, Nurr1 OE + MPP+, time 2 min): 21.96 and 38.12 and 34.89 and 26.1
Seahorse time trace (OCR) (N27-A cells; Fig. S1j, Nurr1 OE + MPP+, time 8 min): 20.5 and 33.32 and 33.36 and 24.15
Seahorse time trace (OCR) (N27-A cells; Fig. S1j, Nurr1 OE + MPP+, time 15 min): 22.25 and 31.43 and 31.49 and 19.26
Seahorse time trace (OCR) (N27-A cells; Fig. S1j, Nurr1 OE + MPP+, time 21 min): 7.36 and 10.03 and 6.69 and 7.02
Seahorse time trace (OCR) (N27-A cells; Fig. S1j, Nurr1 OE + MPP+, time 28 min): 8.04 and 9.23 and 7.6 and 8.44
Seahorse time trace (OCR) (N27-A cells; Fig. S1j, Nurr1 OE + MPP+, time 34 min): 7.79 and 8.85 and 8.38 and 8.58
Seahorse time trace (OCR) (N27-A cells; Fig. S1j, Nurr1 OE + MPP+, time 41 min): 58.47 and 42.11 and 44.82 and 40.84
Seahorse time trace (OCR) (N27-A cells; Fig. S1j, Nurr1 OE + MPP+, time 47 min): 58.99 and 40.77 and 43.63 and 37.36
